Tested on: Pseudomonas aeruginosa strain
Assay: embedding of 1 ml and 0.1 ml samples of mother solution in PCA medium
Format: cell-based
Conditions: for bacteria count in embedding: PCA medium 48 hours, strain at 1.9 10^8, bromoform 60 mg/l
Procedure: In order to test that the antibacterial and/or antifungal action is in fact related to a group of halogenated molecules of low molecular weight, an aqueous solution of 60 mg/l bromoform was prepared and its action compared with that of a permeate of nanofiltration at the threshold of 400 Daltons which therefore only contained micromolecules, in particular halogenated molecules. After embedding 1 ml and 0.1 ml samples in a PCA medium for 48 hours from a mother solution containing the product to be tested and the Pseudomonas aeruginosa strain at a concentration of 1.9 10^8, the results in the following table were obtained.
In this table, and in the following tables, “>>” means that bacteria developed and could not be counted.
Also, the microfiltration permeate was fractionated by subjecting it to ultrafiltration (uF) or nanofiltration (nF), and the antibacterial action on the Pseudomonas strain was measured for each fraction and at different times in accordance with the protocol described below. The following results were obtained:
Other tests were conducted to measure the influence of pH on the extract's activity and its ageing. Acidification was carried out during the so-called acidification stage of the method for obtaining the extract of the invention, using citric acid.

In the case of `BrC(Br)Br` [Bromoform, bromoform], the “bacteria count in embedding” value (0.1 ml embedding) is reported as “>>”, the “bacteria count in embedding” value (1 ml embedding) is reported as “>>” and the “action against the Pseudomonas aeruginosa strain” value (bromoform at 1.5 times the concentration in the extract, permeate on second day after production) is reported as “no action”.

From US6346252B1, “Method of obtaining an antibacterial and/or antifungal extract from the algae, bonnemaisoniacea” (Algues et Mer (S.A.R.L.), priority 1996, dated 2002)
